Source: patent US8497385B2, “Bryostatin analogues, synthetic methods and uses” (The Board of Trustees of the Leland Stanford Junior …, priority 2007, dated 2013)

Legend:
P388 cell line = assay: P388 Murine Lymphocytic Leukemia Cell Assay; format: cell-based
Description: Cells from a P388 cell line (CellGate, Inc., Sunnyvale, Calif.) are grown in RPMI 1640 cell medium containing fetal calf serum (10%), L-glutamine, penicillin, streptomycin and are split twice weekly. All compounds are first diluted with DMSO. Later serial dilutions are done with a phosphate buffer solution (HYQ DPBS modified phosphate buffered saline). All dilutions are done in glass vials and the final DMSO concentration is always below 0.5% by volume. Final two-fold dilutions are done in a 96 well plate using cell media so that each well contains 50 μL. All compounds are assayed in quadruplicate over 12 concentrations. Cell concentration is measured using a hemacytometer and the final cell concentration is adjusted to 1×10^4 cells/mL with cell medium. The resulting solution of cells (50 μL) is then added to each well and the plates are incubated for 5 days in a 37° C., 5% CO2, humidified incubator (Sanyo CO2 incubator). MTT solution (3-[4,5-dimethylthiazol-2-yl]-2,5-diphenyltetrazolium bromide, 10 μL) is then added to each well and the plates are re-incubated under identical conditions for 2 h. To each well is then added acidified isopropanol (150 μL of i-PrOH solution containing 0.05 N HCl) and mixed thoroughly. The plates are then scanned at 595 nm and the absorbances are read (Wallac Victor 1420 Multilabel Counter). The resulting data is then analyzed to determine an ED50 value using the Prism software package (GraphPad).

[1] = tested on: NCl human cancer cell-lines; assay: In vitro inhibition of growth in NCI human cancer cell lines, all cell groups; format: cell-based; settings: all cell groups tested
CCRF-CEM = assay: NCI growth inhibition, CCRF-CEM (Leukemia); format: cell-based, human
HL-60(TB) = format: cell-based, human
EKVX = assay: NCI growth inhibition, EKVX (NSC Lung); format: cell-based, human
HOP-92 = assay: NCI growth inhibition, HOP-92 (NSC Lung); format: cell-based, human
HCC-2998 = assay: NCI growth inhibition, HCC-2998 (Colon); format: cell-based, human
HCT-15 = assay: NCI growth inhibition, HCT-15 (Colon); format: cell-based, human
HT29 = assay: NCI growth inhibition, HT29 (Colon); format: cell-based, human
KM12 = assay: NCI growth inhibition, KM12 (Colon); format: cell-based, human
SW-620 = assay: NCI growth inhibition, SW-620 (Colon); format: cell-based, human
SF-268 = assay: NCI growth inhibition, SF-268 (CNS); format: cell-based, human
SNB-19 = assay: NCI growth inhibition, SNB-19 (CNS); format: cell-based, human
U251 = assay: NCI growth inhibition, U251 (CNS); format: cell-based, human
DU-145 = assay: NCI growth inhibition, DU-145 (Prostate); format: cell-based, human
MI4 = assay: NCI growth inhibition, MI4 (Melanoma); format: cell-based, human
SK-MEL-2 = assay: NCI growth inhibition, SK-MEL-2 (Melanoma); format: cell-based, human
SK-MEL-28 = assay: NCI growth inhibition, SK-MEL-28 (Melanoma); format: cell-based, human
SK-MEL-5 = assay: NCI growth inhibition, SK-MEL-5 (Melanoma); format: cell-based, human
UACC-257 = assay: NCI growth inhibition, UACC-257 (Melanoma); format: cell-based, human
IGROVI = assay: NCI growth inhibition, IGROVI (Ovarian); format: cell-based, human
OVCAR-4 = assay: NCI growth inhibition, OVCAR-4 (Ovarian); format: cell-based, human
OVCAR-5 = assay: NCI growth inhibition, OVCAR-5 (Ovarian); format: cell-based, human
786-0 = assay: NCI growth inhibition, 786-0 (Renal); format: cell-based, human
A498 = assay: NCI growth inhibition, A498 (Renal); format: cell-based, human
CAKI-1 = assay: NCI growth inhibition, CAKI-1 (Renal); format: cell-based, human
TK-10 = assay: NCI growth inhibition, TK-10 (Renal); format: cell-based, human
UO-31 = assay: NCI growth inhibition, UO-31 (Renal); format: cell-based, human
MCF7 = assay: NCI growth inhibition, MCF7 (Breast); format: cell-based, human
MDA-MB-231/ATCC = assay: NCI growth inhibition, MDA-MB-231/ATCC (Breast); format: cell-based, human
BT-549 = assay: NCI growth inhibition, BT-549 (Breast); format: cell-based, human
T-47D = assay: NCI growth inhibition, T-47D (Breast); format: cell-based, human
HS 578T = assay: NCI growth inhibition, HS 578T (Breast); format: cell-based, human

For CCCCCCCC(=O)OC1C(=CC(=O)OC)CC2CC(CO)OC(=O)CC(O)CC3CCCC(CC4CCOC(C=CC(C)(C)C1(O)O2)O4)O3 (stereo not drawn) [Formula IIa (702.1)], the “activity in P388 assay relative to comparison analogues” value (P388 cell line; 702.1 vs C26 methyl-containing analogue, 48, 49 vs other C20 esters) was “significantly higher activity”, the “P388 Assay ED50” value (P388 cell line; 5 days incubation, MTT) was 17 nM and the “potency relative to bryostatin-1, on average” value [1] was “at least as potent, on average, as bryostatin-1”. For the same molecule, the “Difference of GI50 (log), Desmethyl vs Bryo-1” value (“Difference of GI50 (log)” below) (CCRF-CEM) was −0.51, the GI50 (CCRF-CEM; Leukemia) was −5.81 log of molar concentration and the “Difference of GI50 (log)” value (HL-60(TB)) was −0.14. For the same molecule, the GI50 (HL-60(TB)) was −5.84 log of molar concentration, the “Difference of GI50 (log)” value (EKVX) was −0.28 and the GI50 (EKVX; NSC Lung) was −5.58 log of molar concentration. For the same molecule, the “Difference of GI50 (log)” value (HOP-92; HOP-92) was 0.63, the GI50 (HOP-92; HOP-92, NSC Lung) was −4.67 log of molar concentration and the “Difference of GI50 (log)” value (HCC-2998; HCC-2998) was −2.24. The GI50 (HCC-2998; HCC-2998, Colon) was −7.54 log of molar concentration, the “more active than bryostatin-1” value (HCC-2998; HCC-2998, Colon) was “more than 2 orders of magnitude” and the GI50 (HCT-15) was −4.76 log of molar concentration. The “Difference of GI50 (log)” value (HT29; HT29) was −0.25, the GI50 (HT29; HT29, Colon) was −5.55 log of molar concentration and the “Difference of GI50 (log)” value (KM12; KM12) was −0.14. For the same molecule, the GI50 (KM12; KM12, Colon) was −5.34 log of molar concentration, the “Difference of GI50 (log)” value (SW-620; SW-620) was 0.38 and the GI50 (SW-620; SW-620, Colon) was −5.12 log of molar concentration. For the same molecule, the “Difference of GI50 (log)” value (SF-268; SF-268) was 0.13, the GI50 (SF-268; SF-268, CNS) was −4.97 log of molar concentration and the “Difference of GI50 (log)” value (SNB-19; SNB-19) was −0.20. The GI50 (SNB-19; SNB-19, CNS) was −5.2 log of molar concentration, the “Difference of GI50 (log)” value (U251; U251) was −0.30 and the GI50 (U251; U251, CNS) was −5.4 log of molar concentration. The “Difference of GI50 (log)” value (DU-145; DU-145) was −0.02, the GI50 (DU-145; DU-145, Prostate) was −5.02 log of molar concentration and the “Difference of GI50 (log)” value (MI4; MI4) was −0.26. For the same molecule, the GI50 (MI4; MI4, Melanoma) was −5.26 log of molar concentration, the “Difference of GI50 (log)” value (SK-MEL-2; SK-MEL-2) was 0.18 and the GI50 (SK-MEL-2; SK-MEL-2, Melanoma) was −5.02 log of molar concentration. For the same molecule, the “Difference of GI50 (log)” value (SK-MEL-28; SK-MEL-28) was 0.43, the GI50 (SK-MEL-28; SK-MEL-28, Melanoma) was −4.67 log of molar concentration and the “Difference of GI50 (log)” value (SK-MEL-5; SK-MEL-5) was −0.73. The GI50 (SK-MEL-5; SK-MEL-5, Melanoma) was −6.43 log of molar concentration, the “Difference of GI50 (log)” value (UACC-257; UACC-257) was −0.03 and the GI50 (UACC-257; UACC-257, Melanoma) was −5.13 log of molar concentration. For the same molecule, the “Difference of GI50 (log)” value (IGROVI) was 0.42, the GI50 (IGROVI; Ovarian) was −4.88 log of molar concentration and the “Difference of GI50 (log)” value (OVCAR-4; OVCAR-4) was 0.35. The GI50 (OVCAR-4; OVCAR-4, Ovarian) was −5.15 log of molar concentration, the “Difference of GI50 (log)” value (OVCAR-5; OVCAR-5) was −0.28 and the GI50 (OVCAR-5; OVCAR-5, Ovarian) was −5.28 log of molar concentration. For the same molecule, the “Difference of GI50 (log)” value (786-0; 786-0) was −0.26, the GI50 (786-0; 786-0, Renal) was −5.46 log of molar concentration and the “Difference of GI50 (log)” value (A498; A498) was −1.38. For the same molecule, the GI50 (A498; A498, Renal) was −6.38 log of molar concentration, the “Difference of GI50 (log)” value (CAKI-1; CAKI-1) was −0.30 and the GI50 (CAKI-1; CAKI-1, Renal) was −5.7 log of molar concentration. For the same molecule, the “Difference of GI50 (log)” value (TK-10; TK-10) was −2.03, the GI50 (TK-10; TK-10, Renal) was −7.03 log of molar concentration and the “more active than bryostatin-1” value (TK-10; TK-10, Renal) was “more than 2 orders of magnitude”. For the same molecule, the “Difference of GI50 (log)” value (UO-31; UO-31) was 0.75, the GI50 (UO-31; UO-31, Renal) was −4.85 log of molar concentration and the “Difference of GI50 (log)” value (MCF7; MCF7) was −0.20. The GI50 (MCF7; MCF7, Breast) was −5.4 log of molar concentration, the “Difference of GI50 (log)” value (MDA-MB-231/ATCC) was −0.49 and the GI50 (MDA-MB-231/ATCC; Breast) was −5.69 log of molar concentration. The “Difference of GI50 (log)” value (BT-549; BT-549) was 0.39, the GI50 (BT-549; BT-549, Breast) was −4.71 log of molar concentration and the “Difference of GI50 (log)” value (T-47D) was 0.18. For the same molecule, the GI50 (T-47D; Breast) was −5.02 log of molar concentration, the “Difference of GI50 (log)” value (HS 578T) was 0.02 and the GI50 (HS 578T; Breast) was −5.18 log of molar concentration.
